Data from PMC6433232, “Targeting mitochondria in cancer therapy could provide a basis for the selective anti-cancer activity” (PLoS ONE, 2019).
Several values for one entry are separate records, joined by “and”; a condition that tells them apart may be missing. Equal entries are not always repeated. Where two headings read alike, the source gives them in different places.

System: primary acute myeloid leukemia (AML) cells obtained from patients
Test: Kinase inhibitor library screening with and without NSC130362, primary AML cells
Format: cell-based, Human
[1] = ratio of EC50 for inhibitor to EC50 for inhibitor/NSC130362 combination, NSC130362 10 μM, Screen N 1
[2] = ratio of EC50 for inhibitor to EC50 for inhibitor/NSC130362 combination, NSC130362 10 μM, Screen N 2
[3] = ratio of EC50 for inhibitor to EC50 for inhibitor/NSC130362 combination, NSC130362 10 μM, Screen N 3

SMILES	EC50 decrease, fold (Screen N 1) [1] [fold]	EC50 decrease, fold (Screen N 2) [2] [fold]	EC50 decrease, fold (Screen N 3) [3]	EC50 decrease, fold (Screen N 1) [fold]	EC50 decrease, fold (Screen N 2)	EC50 decrease, fold (Screen N 3) [fold]
O=C(O)c1ccc(Nc2ncc3c(n2)-c2ccc(Cl)cc2C(c2c(F)cccc2F)=NC3)cc1 [MLN8054]	1.3	1.0	0.001 fold	–	–	–
Cc1ccc(NC(=O)c2ccc(CN3CCN(C)CC3)cc2)cc1Nc1nc(-c2cccnc2)cs1 [Masitinib (AB-1010)]	–	–	–	0.174	1.0 fold	3.7
CC1(C)CNc2cc(NC(=O)c3cccnc3NCc3ccncc3)ccc21 [Motesanib (AMG-706)]	1.0	1.0	1.0 fold	–	–	–
Nc1ncnc2c1c(-c1cccc(OCc3ccccc3)c1)cn2C1CC(CN2CCCC2)C1 (stereo not drawn) [NVP-ADW742]	3.1	1.0	1.0 fold	–	–	–
COc1cc(N2CCC(N3CCN(C)CC3)CC2)ccc1Nc1ncc(Cl)c(Nc2ccccc2S(=O)(=O)C(C)C)n1 [NVP-TAE684]	0.55	1.0	0.755 fold	–	–	–
CCOc1cc2ncc(C#N)c(Nc3ccc(OCc4ccccn4)c(Cl)c3)c2cc1NC(=O)/C=C/CN(C)C [Neratinib (HKI-272)]	5.7	1.0	1.0 fold	–	–	–
Cc1cn(-c2cc(NC(=O)c3ccc(C)c(Nc4nccc(-c5cccnc5)n4)c3)cc(C(F)(F)F)c2)cn1 [Nilotinib]	–	1.0	1.0 fold	–	–	–
COc1ccc(C2=N[C@@H](c3ccc(Cl)cc3)[C@@H](c3ccc(Cl)cc3)N2C(=O)N2CCNC(=O)C2)c(OC(C)C)c1 [Nutlin 3a]	0.1	1.0	0.9 fold	–	–	–
COc1cc(OC)c(/C=C/S(=O)(=O)Cc2ccc(OC)c(NCC(=O)O)c2)c(OC)c1 [ON-01910]	–	1.0	–	–	–	–
Cc1sc2c(c1C)C(c1ccc(Cl)cc1)=N[C@@H](CC(=O)Nc1ccc(O)cc1)c1nnc(C)n1-2 [OTX-015]	–	0.8	–	–	–	–
CSc1cccc(Nc2ncc3cc(-c4c(Cl)cccc4Cl)c(=O)n(C)c3n2)c1 [PD173955]	0.9	1.0	5.1 fold	–	–	–
Cc1[nH]c(/C=C2\C(=O)Nc3ccc(S(=O)(=O)Cc4c(Cl)cccc4Cl)cc32)c(C)c1C(=O)N1CCC[C@@H]1CN1CCCC1 [PHA-665752]	1.1	1.0	0.226 fold	–	–	–
CCCCCCCCCCCCc1ccc(S(=O)(=O)Nc2nncs2)cc1 [PHT-427]	1.0	1.0	1.0 fold	–	–	–
Oc1cccc(-c2nc(N3CCOCC3)c3oc4ncccc4c3n2)c1 [PI-103]	0.452	2.6	1089.9 fold	–	–	–
NC(=O)c1cnc(N[C@@H]2CCCC[C@@H]2N)nc1Nc1cccc(-n2nccn2)c1 [PRT062607]	8.1	1.0	265.0 fold	–	–	–
CC(=O)c1c(C)c2cnc(Nc3ccc(N4CCNCC4)cn3)nc2n(C2CCCC2)c1=O [Palbociclib]	1.6	1.0	1.8 fold	–	–	–
Cc1[nH]c2ccccc2c1CCNCc1ccc(/C=C/C(=O)NO)cc1 [Panobinostat]	9.3	1.2	0.0014 fold	–	–	–
Cc1ccc(Nc2nccc(N(C)c3ccc4c(C)n(C)nc4c3)n2)cc1S(N)(=O)=O [Pazopanib (GW786034)]	1.0	1.0	193.3 fold and 170.6 fold	–	–	–
CCOc1cc2ncc(C#N)c(Nc3ccc(F)c(Cl)c3)c2cc1NC(=O)/C=C/CN(C)C [Pelitinib (EKB-569)]	1.4	0.843	46.0 fold	–	–	–
Cc1ccc(C(=O)Nc2ccc(CN3CCN(C)CC3)c(C(F)(F)F)c2)cc1C#Cc1cnc2cccnn12 [Ponatinib (AP24534)]	–	–	–	–	0.9 fold and 1.1 fold	–

SMILES	EC50 decrease, fold (Screen N 1) [1] [fold]	EC50 decrease, fold (Screen N 2) [2] [fold]	EC50 decrease, fold (Screen N 3) [3]	EC50 decrease, fold (Screen N 1) [fold]	EC50 decrease, fold (Screen N 2)	EC50 decrease, fold (Screen N 3) [fold]
CC(C)(C)c1cc(NC(=O)Nc2ccc(-c3cn4c(n3)sc3cc(OCCN5CCOCC5)ccc34)cc2)no1 [Quizartinib (AC220)]	–	1.0	–	–	–	–
Cn1c(Nc2ccc(C(F)(F)F)cc2)nc2cc(Oc3ccnc(-c4ncc(C(F)(F)F)[nH]4)c3)ccc21 [RAF265 (CHIR-265)]	2.6	0.8	0.0556 fold	–	–	–
CO[C@H]1C[C@@H]2CC[C@@H](C)[C@@](O)(O2)C(=O)C(=O)N2CCCC[C@H]2C(=O)O[C@H]([C@H](C)C[C@@H]2CC[C@@H](O)[C@H](OC)C2)CC(=O)[C@H](C)/C=C(\C)[C@@H](O)[C@@H](OC)C(=O)[C@H](C)C[C@H](C)/C=C/C=C/C=C/1C [Rapamycin]	–	1.0	–	–	–	–
CNC(=O)c1cc(Oc2ccc(NC(=O)Nc3ccc(Cl)c(C(F)(F)F)c3)c(F)c2)ccn1 [Regorafenib (BAY 73-4506)]	1.0	1.2	0.0284 fold	–	–	–
N#CC[C@H](C1CCCC1)n1cc(-c2ncnc3[nH]ccc23)cn1 [Ruxolitinib (INCB018424)]	–	1.0	–	–	–	–
NC(=O)c1ccc(-c2nc(-c3ccc4c(c3)OCO4)c(-c3ccccn3)[nH]2)cc1 [SB-431542]	1.0	1.0	1058.2 fold	–	–	–
O=C(Nc1ccc2[nH]nc(-c3ccncc3)c2c1)[C@@H]1CCN(CC(=O)N2CCN(c3ccc(-c4ncccn4)cc3)CC2)C1 [SCH-772984]	–	0.8	–	–	–	–
Cn1cc(-c2ccc3nnc(Sc4ccc5ncccc5c4)n3n2)cn1 [SGX-523]	1.6	1.0	66.4 fold	–	–	–
CC(C)(C)c1cnc(CSc2cnc(NC(=O)C3CCNCC3)s2)o1 [SNS-032 (BMS-387032)]	6.0	0.9	14.0 fold	–	–	–
CCCCCNC(=O)N1CCC(CN(Cc2ccc(Cl)cc2)Cc2ccc([N+](=O)[O-])s2)C1 (stereo not drawn) [SR9011]	–	–	82.4 fold	–	–	–
O=C(O)c1ccc2c3c1cccc3c(=O)n1c3ccccc3nc21 [STO609]	1.4	1.0	0.000816 fold	–	–	–
Cc1[nH]c(/C=C2\C(=O)Nc3ccc(S(=O)(=O)N(C)c4cccc(Cl)c4)cc32)c(C)c1C(=O)N1CCN(C)CC1 [SU11274]	11.9	1.0	0.000745 fold	–	–	–
Cn1cnc2c(F)c(Nc3ccc(Br)cc3Cl)c(C(=O)NOCCO)cc21 [Selumetinib (AZD6244)]	6.5	1.5	1.0 fold	–	–	–
CCN(CC)CCNC(=O)c1c(C)[nH]c(/C=C2\C(=O)Nc3ccc(F)cc32)c1C [Sunitinib]	–	1.0	–	–	–	–
Nc1nc(N)c2nc(-c3cccc(O)c3)c(-c3cccc(O)c3)nc2n1 [TG100-115]	1.8	1.0	1.0 fold	–	–	–
Cc1nc(-c2cn3c(n2)-c2ccc(-c4cnn(C(C)(C)C(N)=O)c4)cc2OCC3)n(C(C)C)n1 [Taselisib (GDC-0032)]	–	2.8	–	–	–	–
COc1cc2nccc(Oc3ccc(NC(=O)Nc4cc(C)on4)c(Cl)c3)c2cc1OC [Tivozanib (AV-951)]	15.6	1.0	89.9 fold	–	–	–
Cc1cc(Nc2cc(N3CCN(C)CC3)nc(Sc3ccc(NC(=O)C4CC4)cc3)n2)n[nH]1 [Tozasertib (VX-680)]	7.5	1.0	0.9 fold	–	–	–
CC(=O)Nc1cccc(-n2c(=O)n(C3CC3)c(=O)c3c(Nc4ccc(I)cc4F)n(C)c(=O)c(C)c32)c1 [Trametinib (GSK1120212)]	1.4	398.5	183.2 fold	–	–	–
